From patent US7405063B2, “Biooxidation capabilities of Candida sp” (Cognis Corporation, priority 2000, dated 2008)
Marks after values point to notes of the source that are not given here.

What was measured:
C. tropicalis = assay: Toxicity tests of additional substrates (absorbance at 600 nm); type: cell-based; settings: for Absorbance at 600 nm: 24 hours, added without solvent
Protocol: Additional substrates were to be tested for bioconversion following a slightly different protocol than the one noted above in Example 3. Those substrates also had to be tested for toxicity similar to the test described in Example 2, to determine the highest concentration at which a substrate could be added to a culture broth without being toxic, inhibiting growth, or interfering with the bioconversion process. C. tropicalis was grown in the presence of the substrate at three different concentrations and growth was monitored spectrophotometrically. In contrast to Example 2, all test substrates were added directly to the culture medium without dissolving in solvent. The tests were completed as follows:
On the first day, H5343 was grown in YPD medium (25.0 ml seed culture) overnight on a rotary shaker at 30° C. and 250 rpm. The next day 1.0 ml of the seed culture was used to inoculate a new flask of 50 ml YPD. This culture was grown overnight on a rotary shaker at 30° C. and 250 rpm. […]
Two control flasks were each inoculated with H5343 in 25 ml YPD. All flasks were incubated on a rotary shaker at 30° C. and 250 rpm.
After 24 hours incubation, the absorbance at 600 nm of the test and control flask cultures was determined, using uninoculated YPD broth as blank. Cultures were diluted so that the OD^600 nm measured between 0.15 and 0.3.
For strongly inhibitory substrates, a concentration of 0.1-0.2% was chosen for the bioconversion tests.

[1] = tested on: C. tropicalis strain H5343; assay: Toxicity tests of substrates (growth by absorbance at 600 nm, streak plates); type: cell-based; settings: for ABS 600.0 nm: 48 h, 30° C., dilution in YPD 1:100
Protocol: The toxicity test used here was similar to that used for the solvents described in Example 1. The goal was to determine the highest concentration at which a substrate could be added to a culture broth without being toxic, inhibiting growth, or interfering with the bioconversion process. C. tropicalis strain H5343 was grown in the presence of the substrate at different concentrations and growth was monitored spectrophotometrically. In order to determine if the substrate was lethal or was simply inhibiting growth, the cultures were examined under the microscope and streak plates of YPD and LB agar were prepared. Contamination of the culture with an unwanted organism could also be detected using this approach.
6 ml was transferred to the first tube and 3 ml to the rest. 1% substrate was added to the first tube and then serially diluted to give concentrations from 1% to 0.015%. Since the last tube was initially empty, the concentration in the last two tubes was the same. […] As a growth-control one culture without substrate was inoculated.
To determine if contamination had occurred, each culture was examined under the microscope and streak plates of both YPD and LB were made from the 1% and the inoculated 0.015% tube.

[2] = substrate concentration 0.01563%
[3] = substrate concentration 0.0313%

Compound	ABS 600.0 nm [1, 2]	ABS 600.0 nm [1, 3]	ABS 600.0 nm ([1]; substrate concentration 0.063%)	ABS 600.0 nm ([1]; substrate concentration 0.13%)	ABS 600.0 nm ([1]; substrate concentration 0.25%)	ABS 600.0 nm ([1]; substrate concentration 0.5%)	ABS 600.0 nm ([1]; substrate concentration 1%)	Absorbance at 600 nm (C. tropicalis; substrate concentration 0.1%)	Absorbance at 600 nm (C. tropicalis; substrate concentration 0.5%)	Absorbance at 600 nm (C. tropicalis; substrate concentration 1.0%)	further results
CCCCC(CC)C1OCCN1CCCC (centres unmarked) [3-Butyl-(ethylpentyl)oxazolidine, 3-Butyl-2(1-ethylpentyl)oxazolidine]	–	–	–	–	–	–	–	–	–	–	Absorbance at 600 nm (C. tropicalis; substrate concentration 0.06%): 12.5; Absorbance at 600 nm (C. tropicalis; substrate concentration 0.3%): 0.245; Absorbance at 600 nm (C. tropicalis; substrate concentration 0.6%): 1.18
CCCCCCCCCCCCO [1-Dodecanol]	0.000	0.000	0.000	0.004	0.032**	0.013**	0.267**	–	–	–	–
C=COCCCCCCCCCCCC [Dodecylvinylether]	–	–	–	–	–	–	–	20.43	12.63	7.33	–
CC1CCCCC1 [Methylcyclohexane]	–	–	–	–	–	–	–	–	–	–	Absorbance at 600 nm (C. tropicalis; substrate concentration 0.06%): 13.7; Absorbance at 600 nm (C. tropicalis; substrate concentration 0.3%): 15.6; Absorbance at 600 nm (C. tropicalis; substrate concentration 0.6%): 0.16
C=C(C)[C@H]1CC=C(C)CC1 [R(+) limonene]	0.123	0.117	0.106	0.007	0.000	0.000	0.000	–	–	–	–
CCCCCC/C=C/CCCCCC [trans-7-tetradecene]	0.117	0.106	0.112	0.104	0.103	0.107	0.095	–	–	–	–
CCCCC(C(=O)O)C(=O)O [Butylmalonic Acid]	–	–	–	–	–	–	–	27.43	27.13	8.53	–
CCCCCCCCC(=O)CCCCCCCC [9-Heptadecanone]	0.100	0.120	0.064	0.103	0.120	0.073	0.004**	–	–	–	–
C=CCCCCCCCCCC [Dodecene]	0.088	0.055	0.079	0.050	0.053	0.032	0.026	–	–	–	–
CCCCCCC(C)O (centres unmarked) [2-Octanol]	–	–	–	–	–	–	–	0.250	0.235	0.285	Toxic at (concentration) (C. tropicalis; Phase II screening summary): Toxic at 0.1%
CCCCCCCCCCCCN [Dodecyclamine, Dodecylamine]	0.000	0.000	0.000	0.000	0.000	0.000	0.000	–	–	–	Toxic at (concentration) ([1]; Phase I screening summary): Toxic at 0.01%
CCCCC(=O)C(C)C [2-Methyl-3-heptanone]	–	–	–	–	–	–	–	–	–	–	Absorbance at 600 nm (C. tropicalis; substrate concentration 0.06%): 19.2; Absorbance at 600 nm (C. tropicalis; substrate concentration 0.3%): 0.099; Absorbance at 600 nm (C. tropicalis; substrate concentration 0.6%): 0.125
C=CCCCCCCCCCCCC [C14 a-Olefin, 1-tetradecene]	0.061	0.084	0.085	0.097	0.115	0.084	0.087	–	–	–	–
CCCCCCCCCCCCCCCCOC(=O)CCCCCCCC [Hexadecyl pelargonate]	0.112	0.095	0.075	0.083	0.103	0.102	0.080	–	–	–	–
CCC1CCCCC1 [Ethylcyclohexane]	–	–	–	–	–	–	–	–	–	–	Absorbance at 600 nm (C. tropicalis; substrate concentration 0.06%): 9.45; Absorbance at 600 nm (C. tropicalis; substrate concentration 0.3%): 2.03; Absorbance at 600 nm (C. tropicalis; substrate concentration 0.6%): 16.5
C=CCCCCCCCCCC [C12 a-Olefin]	0.077	0.119	0.119	0.082	0.080	0.080	0.082	–	–	–	–
CCCCCCOCCCCCC [Hexyl Ether, Dihexyl Ether]	–	–	–	–	–	–	–	12.85	13.21	3.33	–
CCCC[S+]([O-])CCCC [Butylsulfoxide, dibutylsulfoxide]	–	–	–	–	–	–	–	15.63	11.37	5.81	–

Compound	ABS 600.0 nm [1, 2]	ABS 600.0 nm [1, 3]	ABS 600.0 nm ([1]; substrate concentration 0.063%)	ABS 600.0 nm ([1]; substrate concentration 0.13%)	ABS 600.0 nm ([1]; substrate concentration 0.25%)	ABS 600.0 nm ([1]; substrate concentration 0.5%)	ABS 600.0 nm ([1]; substrate concentration 1%)	Absorbance at 600 nm (C. tropicalis; substrate concentration 0.1%)	Absorbance at 600 nm (C. tropicalis; substrate concentration 0.5%)	Absorbance at 600 nm (C. tropicalis; substrate concentration 1.0%)	further results
CCCCC1CCCCC1 [Butylcyclohexane]	–	–	–	–	–	–	–	22.03	21.13	20.33	–
CCCCCCCCC(CCCCCC)C(=O)O (centres unmarked) [2-Hexydecanoic acid, 2-hexyldecanoic acid]	–	–	–	–	–	–	–	27.73	35.33	41.53	–
CCCCCCCCCC(CCCCCCC)C(=O)O (centres unmarked) [2-Heptylundecanoic acid]	0.082	0.077	0.077	0.043	–	0.048	0.268	–	–	–	–
CCCCCOCCCCC [Pentyl Ether, Dipentyl Ether]	–	–	–	–	–	–	–	2.033	1.863	1.813	–
C=CCCCCCCCCCCCCCCCC [1-Octadecene]	–	–	–	–	–	–	–	34.93	36.33	34.7	–
CCCCCC(O)CCCCC [6-Undecanol]	0.000**	0.000**	0.000**	0.000**	0.000**	0.000**	0.000**	–	–	–	–
C=C(C)[C@@H]1CC=C(C)CC1 [S(−) limonene]	0.104	0.094	0.011	0.002	0.000	0.002	0.002	–	–	–	–
C=CCCCCCCCCCCCCCC [1-Hexadecene]	–	–	–	–	–	–	–	38.99	35.33	37.93	–
CCCCCCCCCCCCCCCCOC(C)=O [Hexadecyl acetate]	0.110	0.104	0.089	0.083	0.110	0.103	0.155	–	–	–	–
CCCCCCCCCCCCCCC(O)CO (centres unmarked) [1,2-Hexadecanediol]	–	–	–	–	–	–	–	3.103	3.033	2.013	–
C/C=C/CCCCCC [trans-2-nonene]	0.112	0.100	0.105	0.066	0.000	0.000	0.000	–	–	–	–
CCCCCC#CCCCCC [6-Dodecyne]	0.125	0.083	0.074	0.071	0.073	0.071	0.066	–	–	–	–
CCCCCCc1ccsc1 [3-Hexylthiophene]	–	–	–	–	–	–	–	0.933	1.033	1.223	–
CCCCC(CC)C(=O)O (centres unmarked) [2-Ethylhexanoic acid]	0.099	0.051	0.000	0.000	0.000	0.000	0.000	–	–	–	–
CCCCCCC(O)CCCCCCCCCCC(=O)O (centres unmarked) [12-Hydroxystearic acid]	–	–	–	–	–	–	0.120	–	–	–	–
CCCCCCCC/C=C\CCCCCCCCO [HD-Ocenol, oleyl alcohol]	0.093	0.087	0.076	0.115	0.097	0.085	0.087	–	–	–	–
C=C[C@](C)(O)CC[C@@H]1[C@@]2(C)CCCC(C)(C)[C@@H]2CC[C@@]1(C)O [Indu-Extrakt-sclareol, sclareol]	0.083	0.100	0.157	0.106	0.110	0.092	0.083	–	–	–	–
